# Reference: patent publication US9334263B2, “Compositions useful for treating disorders related to kit” (BLUEPRINT MEDICINES CORPORATION, priority 2013, dated 2016)
# Columns and labels:
# [1] = target: T1, D816V Kit (Homo sapiens, UniProt P10721, D816V); assay: Kit D816V assay at Km (Caliper electrophoretic mobility shift); assay type: biochemical; conditions: 15 uM ATP, 25 C, 90 minutes
# T1 construct: purchased Carna Bioscience 08-156
# Description: In order to assess the activity of chemical compounds against the relevant kinase of interest, the Caliper LifeSciences electrophoretic mobility shift technology platform is used. Fluorescently labeled substrate peptide is incubated in the presence of kinase and ATP so that a […] proportion of the peptide is phosphorylated. At the end of the reaction, the mix of phosphorylated (product) and non-phosphorylated (substrate) peptides are passed through the microfluidic system of the Caliper EZ Reader 2, under an applied potential difference. The presence of the phosphate group on the product peptide provides a difference in mass and charge between those of the substrate peptide, resulting in a separation of the substrate and product pools in the sample. As the pools pass a LEDS within the instrument, these pools are detected and resolved as separate peaks. The ratio between these peaks therefore reflects the activity of the chemical matter at that concentration in that well, under those conditions.
# The reaction was stopped by the addition of 70 ul of Stop buffer (100 mM HEPES pH 7.5, 0.015% Brij 35, 35 mM EDTA and 0.2% of Coating Reagent 3 (Caliper Lifesciences)). The plate was then read on a Caliper EZReader 2 (protocol settings: −1.9 psi, upstream voltage −700, downstream voltage −3000, post sample sip 35 s).
# [2] = target: T2, Kit D816V (HMC1.2 cells, Kit V560G and D816V) (Homo sapiens, UniProt P10721, D816V/V560G); assay: HMC1.2 autophosphorylation assay (AlphaLISA, phospho-Y719 c-Kit); assay type: cell-based; conditions: Kit autophosphorylation at tyrosine 719, 90 minutes, read-out: Cellular Activity
# T2 construct: endogenous in cells; host or cells: HMC1.2 cells
# T2 sequence (P10721 26-976 V560G/D816V): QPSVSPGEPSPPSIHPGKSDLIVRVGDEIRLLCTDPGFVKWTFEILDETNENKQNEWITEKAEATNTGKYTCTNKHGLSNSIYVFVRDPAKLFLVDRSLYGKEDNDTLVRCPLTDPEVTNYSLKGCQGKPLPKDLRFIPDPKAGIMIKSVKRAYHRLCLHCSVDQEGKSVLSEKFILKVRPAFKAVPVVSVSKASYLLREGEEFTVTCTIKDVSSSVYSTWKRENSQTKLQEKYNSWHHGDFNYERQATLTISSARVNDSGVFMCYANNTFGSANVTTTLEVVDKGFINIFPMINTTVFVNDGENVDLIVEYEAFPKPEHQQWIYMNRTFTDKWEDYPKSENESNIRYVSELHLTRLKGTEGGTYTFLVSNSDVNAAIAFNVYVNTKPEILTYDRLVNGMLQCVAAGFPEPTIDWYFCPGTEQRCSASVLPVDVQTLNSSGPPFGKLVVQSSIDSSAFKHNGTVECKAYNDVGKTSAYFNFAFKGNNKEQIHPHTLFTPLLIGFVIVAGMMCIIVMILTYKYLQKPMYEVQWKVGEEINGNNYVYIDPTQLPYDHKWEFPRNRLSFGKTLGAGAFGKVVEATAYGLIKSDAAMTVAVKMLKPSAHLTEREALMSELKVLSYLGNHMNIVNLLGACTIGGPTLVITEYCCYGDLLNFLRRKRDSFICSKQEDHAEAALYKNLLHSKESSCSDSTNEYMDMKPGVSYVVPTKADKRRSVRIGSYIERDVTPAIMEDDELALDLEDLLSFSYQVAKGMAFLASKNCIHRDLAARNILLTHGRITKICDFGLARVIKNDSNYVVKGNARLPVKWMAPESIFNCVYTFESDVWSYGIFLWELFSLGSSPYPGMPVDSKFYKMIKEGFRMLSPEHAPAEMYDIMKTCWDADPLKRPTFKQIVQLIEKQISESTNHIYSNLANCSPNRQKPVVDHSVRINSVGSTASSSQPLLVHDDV
# Description: HMC1.2 Autophosphorylation Assay:
# 10,000 HMC1.2 cells were incubated in 22 ul culture media (phenol-red free IMDM, no serum) in each well of a 384-well plate and serum starved overnight in a tissue culture incubator (5% CO2, 37° C.). A 10-point dose concentration series of compound (25 uM-95.4 pM) were then added to the cells in a volume of 3.1 ul to each well (0.25% DMSO final concentration). After 90 minutes, 6 ul of 5× AlphaLISA Lysis Buffer (Perkin Elmer) supplemented with a protease and phosphatase inhibitor cocktail (Cell Signaling Technologies) was added to each well and shaken at 450 rpm for 15 minutes at 4° C. 10 ul of phospho-Y719 c-Kit and total c-Kit antibodies (15 nM final concentration, Cell Signaling Technologies) and 50 ug/ml AlphaLISA rabbit acceptor beads (Perkin Elmer) were added to each well and shaken at 300 rpm at room temperature for 2 hours. 10 ul of 100 ug/ml streptavidin donor beads (Perkin Elmer) were added to each well, blocked from light with aluminum adhesive and shaken at 300 rpm at room temperature for 2 hours. Fluorescence signal was obtained on Envision (Perkin Elmer) by AlphaScreen 384 well HTS protocol.
# This cell line contains Kit mutated at positions V560G and D816V resulting in constitutive activation of the kinase. The following compounds were tested in an assay to measure direct inhibition of Kit D816V kinase activity by assaying Kit autophosphorylation at tyrosine 719 on the Kit protein.
# T1 sequence (P10721 26-976 D816V): as the sequence (P10721 26-976 V560G/D816V) above, with G535V counted along it
Structure (SMILES),IC50 [1],IC50 [2]
OC[C@H](O)COc1ccc(Nc2ncnc(N3CCN(c4ncc(Cc5ccccc5)cn4)CC3)n2)cc1 [Compound 131],1.01 to 10 nM,10 to 100 nM
Fc1ccccc1Sc1cnc(N2CCN(c3ncnc(Nc4cnn(C[C@@H]5CNCCO5)c4)n3)CC2)nc1 [Compound 255],< 1 nM,10 to 100 nM
OC1(c2ccc(Nc3ncnc(N4CCN(c5ncc(Cc6ccccc6)cn5)CC4)n3)cc2)CCCNC1 (stereo not drawn) [Compound 236],< 1 nM,< 10 nM
C[C@@H](O)CNc1ccc(Nc2ncnc(N3CCN(c4ncc(Cc5ccccc5)cn4)CC3)n2)cc1 [Compound 82],< 1 nM,10 to 100 nM
O[C@@H]1CCN(c2ccc(Nc3ncnc(N4CCN(c5ncc(Cc6ccccc6)cn5)CC4)n3)cc2)C[C@@H]1O [Compound 232],< 1 nM,10 to 100 nM
OCc1nc(N2CCN(c3ncnc(Nc4ccc5c(c4)CNCC5)n3)CC2)ncc1Cc1ccccc1 [Compound 110],< 1 nM,10 to 100 nM
c1ccc(Cc2cnc(N3CCN(c4ncnc(Nc5ccc6c(c5)CNCC65CC5)n4)CC3)nc2)cc1 [Compound 97],< 1 nM,10 to 100 nM
Cc1c(Nc2ncnc(N3CCN(c4ncc([C@](C)(O)c5ccc(F)cc5)cn4)CC3)n2)cnn1C[C@@H]1CNCCO1 [Compound 277],< 1 nM,10 to 100 nM
OCC(O)c1ccc(Nc2ncnc(N3CCN(c4ncc(Cc5ccccc5)cn4)CC3)n2)cc1 (stereo not drawn) [Compound 55],< 1 nM,10 to 100 nM
Fc1ccc(Cc2cnc(N3CCN(c4ncnc(Nc5ccc6c(c5)CNCC6)n4)CC3)nc2)c(F)c1 [Compound 138],< 1 nM,10 to 100 nM
c1ccc(Cc2cnc(N3CCN(c4ncnc(Nc5ccc6c(c5)CCCNC6)n4)CC3)nc2)cc1 [Compound 72],< 1 nM,10 to 100 nM
O[C@H]1CCN(c2ccc(Nc3ncnc(N4CCN(c5ncc(Cc6ccccc6)cn5)CC4)n3)cc2)C1 [Compound 112],1.01 to 10 nM,100 to 1000 nM
Fc1cccc(Cc2cnc(N3CCN(c4ncnc(Nc5ccc6c(c5)CNCC6)n4)CC3)nc2)c1 [Compound 80],1.01 to 10 nM,10 to 100 nM
C[C@@H]1CN(c2ncnc(Nc3ccc(N4CCC[C@@H](O)C4)cc3)n2)CCN1c1ncc(Cc2ccccc2)cn1 [Compound 222],1.01 to 10 nM,10 to 100 nM
COc1nc(N2CCN(c3ncnc(Nc4cnn(C[C@@H]5CNCCO5)c4)n3)CC2)ncc1Cc1ccccc1 [Compound 246],1.01 to 10 nM,1000 to 10000 nM
c1ccc(Cc2cnc(N3CCN(c4ncnc(Nc5cnn(C[C@H]6COCCN6)c5)n4)CC3)nc2)cc1 [Compound 125],< 1 nM,10 to 100 nM
c1ccc(Cc2cnc(N3CCN(c4ncnc(Nc5cnn(C[C@@H]6COCCN6)c5)n4)CC3)nc2)cc1 [Compound 126],1.01 to 10 nM,100 to 1000 nM
Fc1cccc(Oc2cnc(N3CCN(c4ncnc(Nc5cnn(C[C@@H]6CNCCO6)c5)n4)CC3)nc2)c1 [Compound 204],1.01 to 10 nM,100 to 1000 nM
Fc1ccc(OCc2cnc(N3CCN(c4ncnc(Nc5cnn(C[C@@H]6CNCCO6)c5)n4)CC3)nc2)cc1 [Compound 253],1.01 to 10 nM,10 to 100 nM
CC(c1ccccc1)c1cnc(N2CCN(c3ncnc(Nc4ccc5c(c4)CNCC5)n3)CC2)nc1 (stereo not drawn) [Compound 71],< 1 nM,10 to 100 nM
Fc1cc(N2CCNCC2)ccc1Nc1ncnc(N2CCN(c3ncc(Cc4ccccc4)cn3)CC2)n1 [Compound 175],1.01 to 10 nM,1000 to 10000 nM
"C(#CC1CC1)c1cnc(N2CCN(c3ncnc(Nc4cnn(C[C@@H]5CNCCO5)c4)n3)CC2)nc1 [Compound 63, (S)-4-(4-(5-(cyclopropylethynyl)pyrimidin-2-yl)piperazin-1-yl)-N-(1-(morpholin-2-ylmethyl)-1H-pyrazol-4-yl)-1,3,5-triazin-2-amine]",> 100 nM,
c1ccc(Cc2cnc(N3CCN(c4ncnc(Nc5ccc(O[C@@H]6CCNC6)cc5)n4)CC3)nc2)cc1 [Compound 107],< 1 nM,10 to 100 nM
CC(C)(O)[C@@H](O)c1ccc(Nc2ncnc(N3CCN(c4ncc(Cc5ccccc5)cn4)CC3)n2)cc1 [Compound 122],< 1 nM,10 to 100 nM

Structure (SMILES),IC50 [1],IC50 [2]
C[C@@H](O)Cn1cc(Nc2ncnc(N3CCN(c4ncc(Cc5ccccc5)cn4)CC3)n2)cn1 [Compound 32],1.01 to 10 nM,10 to 100 nM
C[C@@H](O)CN1CCc2ccc(Nc3ncnc(N4CCN(c5ncc(Cc6ccccc6)cn5)CC4)n3)cc2C1 [Compound 220],< 1 nM,10 to 100 nM
Cc1nn(C[C@@H]2CNCCO2)cc1Nc1ncnc(N2CCN(c3ncc(Cc4ccccc4)cn3)CC2)n1 [Compound 184],1.01 to 10 nM,10 to 100 nM
c1ccc(C2(c3cnc(N4CCN(c5ncnc(Nc6cnn(C[C@@H]7CNCCO7)c6)n5)CC4)nc3)CC2)cc1 [Compound 233],1.01 to 10 nM,10 to 100 nM
c1ccc(Cc2cnc(N3CCN(c4ncnc(Nc5ccc(O[C@H]6CCNC6)cc5)n4)CC3)nc2)cc1 [Compound 108],< 1 nM,10 to 100 nM
c1ccc(Cc2cnc(N3CCN(c4ncnc(Nc5cnn(C[C@H]6COCCO6)c5)n4)CC3)nc2)cc1 [Compound 133],< 1 nM,10 to 100 nM
"C[C@H](c1ccccc1)c1cnc(N2CCN(c3ncnc(Nc4cnn(C[C@@H]5CNCCO5)c4)n3)CC2)nc1 [Compound 186, N-(1-((S)-morpholin-2-ylmethyl)-1H-pyrazol-4-yl)-4-(4-(5-((R)-1-phenylethyl)pyrimidin-2-yl)piperazin-1-yl)-1,3,5-triazin-2-amine]",< 1 nM,10 to 100 nM
Nc1nc(N2CCN(c3ncnc(NC4CC4)n3)CC2)ncc1Cc1ccccc1 [Compound 3],> 100 nM,
C[C@H](O)CN1CCc2ccc(Nc3ncnc(N4CCN(c5ncc(Cc6ccccc6)cn5)CC4)n3)cc2C1 [Compound 221],< 1 nM,< 10 nM
O[C@H]1CCCN(c2ccc(Nc3ncnc(N4CCN(c5ncc(Cc6ccc(F)cc6)cn5)CC4)n3)cc2)C1 [Compound 240],1.01 to 10 nM,< 10 nM
OC[C@@H](O)COc1cccc(Nc2ncnc(N3CCN(c4ncc(Cc5ccccc5)cn4)CC3)n2)c1 [Compound 130],1.01 to 10 nM,10 to 100 nM
Fc1cccc(F)c1Cc1cnc(N2CCN(c3ncnc(Nc4ccc5c(c4)CNCC5)n3)CC2)nc1 [Compound 136],1.01 to 10 nM,100 to 1000 nM
Nc1nc(N2CCN(c3ncnc(Nc4cnn(CC5CN(C=O)CCO5)c4)n3)CC2)ncc1Cl (stereo not drawn) [Compound 90],10 to 100 nM,
C[C@@H]1CN(c2ncnc(Nc3cnn(C[C@@H]4CNCCO4)c3)n2)CCN1c1ncc(Br)c(N)n1 [Compound 194],10 to 100 nM,
c1nc(Nc2cnn(C[C@@H]3CNCCO3)c2)nc(N2CCN(c3ncc(CCC4CC4)cn3)CC2)n1 [Compound 67],10 to 100 nM,
"C[C@@](O)(c1ccc(F)cc1)c1cnc(N2CCN(c3ncnc(Nc4cnn(C[C@@H]5CNCCO5)c4)n3)CC2)nc1 (single isomer, unassigned) [Compound 270]",1.01 to 10 nM,
Cc1c(Nc2ncnc(N3CCN(c4ncc(Br)cn4)CC3)n2)cnn1C[C@@H]1CNCCO1 [Compound 142],10 to 100 nM,
Clc1ncc(N2CCN(c3ncnc(Nc4ccc5c(c4)CNCC5)n3)CC2)nn1 [Compound 8],10 to 100 nM,
Cc1cc(Nc2ncnc(N3CCN(c4ncc(Cc5ccccc5)cn4)CC3)n2)no1 [Compound 11],10 to 100 nM,
OC[C@H]1CN(c2ncnc(Nc3cnn(CC4CNCCO4)c3)n2)CCN1c1ncc(Cc2ccccc2)cn1 (stereo partly drawn) [Compound 247],10 to 100 nM,
CNc1ncnc(N2CCN(c3ncc(Cc4ccccc4)c(N)n3)CC2)n1 [Compound 1],> 100 nM,
CC(O)c1ccc(Nc2ncnc(N3CCN(c4ncc([C@@](C)(N)c5ccc(F)cc5)cn4)CC3)n2)cc1 (stereo partly drawn) [Compound 140],< 1 nM,
FC(F)(c1ccccc1)c1cnc(N2CCN(c3ncnc(Nc4cnn(C[C@@H]5CNCCO5)c4)n3)CC2)nc1 [Compound 254],1.01 to 10 nM,
